Key:
[1] = biological target: T1, LXRα protein (Homo sapiens, UniProt Q13133); assay: Limited protease protection assay (chymotrypsin) of [35S]-labelled Flag-LXRα; format: binding; settings: increasing concentrations of chymotrypsin, SDS-PAGE and autoradiography
T1 construct: made in house; host or cells: in vitro synthesis (cell-free translation)
T1 sequence (Q13133 1-447): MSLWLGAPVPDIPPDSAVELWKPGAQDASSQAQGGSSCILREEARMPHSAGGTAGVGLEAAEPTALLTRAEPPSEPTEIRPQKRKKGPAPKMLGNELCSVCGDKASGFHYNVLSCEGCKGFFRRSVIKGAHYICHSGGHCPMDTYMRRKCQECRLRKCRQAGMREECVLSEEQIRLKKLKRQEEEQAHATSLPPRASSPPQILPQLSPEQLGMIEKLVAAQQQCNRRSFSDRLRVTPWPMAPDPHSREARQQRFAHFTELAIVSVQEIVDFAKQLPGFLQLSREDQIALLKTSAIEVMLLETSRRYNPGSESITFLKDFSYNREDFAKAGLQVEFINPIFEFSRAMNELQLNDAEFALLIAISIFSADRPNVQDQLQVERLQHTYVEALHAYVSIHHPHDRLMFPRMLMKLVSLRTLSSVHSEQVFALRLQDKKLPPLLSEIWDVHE
Method: FIG. 4, Protease protection of LXRα with 22(R)-hydroxycholesterol. [^35S]-labelled LXRα protein was incubated with (A) ethanol (ETOH) control or (B) 22(R)-hydroxycholesterol, subjected to protease digestion with increasing amounts of chymotrypsin, and analyzed by SDS-PAGE and autoradiography.
In vitro synthesized [^35S]-labelled Flag-LXRα protein was subjected to protease digestion with α-chymotrysin. For these studies, LXRα with a Flag epitope fused to the amino terminus was used.
The unavailability of radiolabelled LXRα activators prevents direct ligand binding analysis. To address the possibility that 22(R)-hydroxycholesterol interacts with LXRα, a limited protease protection assay was performed (FIG. 4). In this experiment, several proteolytic fragments were generated when LXRα protein was incubated with increasing concentrations of the protease, chymotrypsin. […] The presence of a specific ligand-protected ˜30 kDa fragment has also been observed during similar analyses with other nuclear receptors. Thus, these protease protection studies support the finding that 22(R)-hydroxycholesterol interacts with LXRα.

[2] = biological target: T2, LXR-TR chimera (LXRα N-terminus and DNA binding domain fused to ligand binding domain of TRβ) (Homo sapiens, UniProt P10828+Q13133); settings: CV-1 cells, TK-LXREx3-LUC
T2 sequence (Q13133+P10828 with tags, fused parts or gaps): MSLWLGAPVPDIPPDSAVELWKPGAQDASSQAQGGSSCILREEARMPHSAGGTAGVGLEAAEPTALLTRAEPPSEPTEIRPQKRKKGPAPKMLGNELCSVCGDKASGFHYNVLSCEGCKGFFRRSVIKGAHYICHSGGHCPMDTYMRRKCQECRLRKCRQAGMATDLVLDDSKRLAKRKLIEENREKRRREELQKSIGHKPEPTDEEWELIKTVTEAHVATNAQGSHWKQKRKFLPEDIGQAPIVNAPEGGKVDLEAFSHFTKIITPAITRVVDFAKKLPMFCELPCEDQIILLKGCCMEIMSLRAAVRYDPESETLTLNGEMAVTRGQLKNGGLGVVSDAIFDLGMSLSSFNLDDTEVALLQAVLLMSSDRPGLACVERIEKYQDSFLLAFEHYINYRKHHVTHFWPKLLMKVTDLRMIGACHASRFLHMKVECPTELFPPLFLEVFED

**Q.** What does the source list for `CC(C)CC[C@@H](O)[C@@H](C)[C@H]1CC[C@H]2[C@@H]3CC=C4C[C@@H](O)CC[C@]4(C)[C@H]3CC[C@]12C` [22(R)-hydroxycholesterol]?
**A.** ligand-protected 30 kDa chymotrypsin fragment of LXRα [1]: consistently observed; responsiveness of LXR-TR chimera [2]: loses responsiveness

Reference: patent publication US6893830B1, “Method of screening oxysterol activation of LXRα” (The Board of Regents of the University of Texas System, priority 1996, dated 2005)
